From US9605013B2, “Derivatives of hemin with antibacterial and antiviral activity” (OBSCHESTVO S OGRANICHENNOI OTVETSTVENNOSTIYU …, priority 2011, dated 2017)

Experiments:
[1] = test system: Enterococcus faecalis No. 559; assay: Antibacterial specific activity, twofold dilutions, visual growth evaluation; assay type: cell-based; details: E. faecalis 559; 36° C., 24 hours
Method: (§1) The specific activity of compounds also was determined against bacteria strains such as Staphylococcus aureus No. 25923 ATCC (American Type Culture Collection); Staphylococcus aureus No. 100 KC; Staphylococcus epidermidis No. 533; Enterococcus faecalis No. 559; Enterococcus faecium No. 569, Staphylococcus aureus No. 5 (MRSA), Staphylococcus aureus No. 3797 (MRSA). Staphylococcus aureus was cultured on the Trypticase Soy Agar (BBL) commercially available dry medium. Enterococcus faecalis was cultured on the Columbia Agar (BBL) commercially available dry medium. These media were sterilized by autoclaving at 121° C. for 15 min. Bacterial inoculum was constant and was 5×10^5 CFU/ml (10^5 CFU/0.2 ml). For water-soluble compounds, wells from 2nd through 8th were added with the solvent (water) in an amount of 15 μL per well, then the 1st well was added with 30 μL of the stock solution of the tested compound in […] with a concentration of […], and the concentration was adjusted to 0.007×10^3 M by serial twofold dilutions. A 10-μL portion was taken from every well, and 190 μL of the bacterial culture (10^5 CFU) was added per well. For DMSO-soluble compounds, wells from 2nd through 8th were added with the solvent (DMSO) in an amount of 10 μL per well, then the 1st well was added with 20 μL of the stock solution of the tested compound in […] with a concentration of […], and the concentration was adjusted to 0.039×10^3 M by serial twofold dilutions. A 2-μL portion was taken from each well, and 198 μL of the bacterial culture (10^5 CFU) was added per well.
(§2) The control comprised wells free of tested compounds (culture growth control). In addition, purity control of nutritional media and solvents was used. Plates were incubated in a thermostat at 36° C. for 24 hours.
(§3) Culture growth was evaluated visually by comparison of how microorganisms grew in the presence of tested compounds and in the absence of them. MIC was set equal to the last dilution of a tested agent which suppressed bacterial culture growth.

[2] = test system: Escherichia coli 4300; assay: as above; assay type: cell-based; details: E. coli 4300; 36° C., 24 hours
Method: [Worded in the source for another organism; this organism is reported under the same test.] as §1, §2, §3

[3] = test system: Staphylococcus aureus No. 100 KC; assay: as above; assay type: cell-based; details: S. aureus 100 KC; 36° C., 24 hours
Method: as §1, §2, §3

[4] = test system: Staphylococcus aureus No. 25923 ATCC; assay: as above; assay type: cell-based; details: S. aureus 25923; 36° C., 24 hours
Method: as §1, §2, §3

[5] = test system: Staphylococcus aureus No. 3797 (MRSA); assay: as above; assay type: cell-based; details: St. aur No. 3797 MRSA; 36° C., 24 hours
Method: as §1, §2, §3

[6] = test system: Staphylococcus aureus No. 5 (MRSA); assay: as above; assay type: cell-based; details: St. aur No. 5 MRSA; 36° C., 24 hours
Method: as §1, §2, §3

[7] = test system: Staphylococcus epidermidis No. 533; assay: as above; assay type: cell-based; details: S. epidermis 533; 36° C., 24 hours
Method: as §1, §2, §3

[8] = test system: Vancomycin-resistant Enterococcus faecium 569; assay: as above; assay type: cell-based; details: Vancomycin-resistant E. faecium 569; 36° C., 24 hours
Method: as §1, §2, §3

[9] = test system: Herpes Simplex Virus type 2 strain G (No. VR-734 ATCC); assay: Antiviral activity, virus cytopathogenic action in Vero cells; assay type: cell-based; set-up: key: 0: CPA (cytopathogenic action) is not detected; 1: up to 25% virus-infected monolayer; from 25% to 50%; 3: from 50% to 75%; 4: from 75% to 100%; details: 48 hours
Method: […] used in the study were used Herpes Simplex Virus type 1 (the Collection of Microorganisms at the Scientific Research Institute of Virology, strain EC), Herpes Simplex Virus type 2 strain G (No. VR-734 ATCC), and human cytomegalovirus strain AD169 (No. VR-538 ATCC). Herpes Simplex viruses type 1 and type 2 were cultured in Vero cells. The cells were incubated in MEM Eagle growth medium (MEM, BioloT, St-Petersburg, 1.3.3) supplemented with 10% fetal bovine serum (BioloT, St-Petersburg, 1.3.12) in Sanyo MCO-15AC gas-flow thermostat (37° C., 5% CO2) (Tokyo, Japan). A seed dose was 2×10^5 cells/ml in the starting inoculum or 2×10^4 cells/well. Herpes Simplex viruses were cultured under the same conditions in the MEM medium without serum (maintenance medium). Starting viral titers were 10^7 TCID50/ml.
For DMSO-soluble preparations, stock solutions were prepared in a concentration of 10 mM in DMSO. For water-soluble preparations, a stock solution prepared had the same concentration in the MEM medium (Minimal Essential Medium) for cell cultures. To control cytotoxicity (see below), the stock solution was diluted in the medium to a concentration of 100 μM and ten-fold serial dilutions of the preparations were made in the MEM medium (for DMSO-soluble compounds—in the MEM medium comprising 3% DMSO). The following concentrations of the preparations were used in the study of […]: if toxicity was not found, the concentrations of 100 μM preparations were 100, 10 and 1 μM; if toxicity was detected, the concentrations of 100 μM preparations were 10, 1, and 0.1 μM. Acyclovir (10 μg/ml) was used for Herpes Simplex viruses of both types as a reference preparation to control the viral model validity.
To study antiviral activity, plate wells with a cell monolayer were added with the preparations in an amount of 0.1 ml/well. To compensate a reduction in the concentration of the preparations, which takes place in the following addition of viruses, twofold concentrations of compounds (i.e. 200, 20 and 2 or 20, 2 and 0.2 μM for […] concentrations of 100 μM preparations, respectively) were used, incubated for an hour and then were infected with the examined 0.1 ml/well viruses in doses 1, 10 and 100 TCID50 (50% tissue infectious dose).
The virus-specific cytogenic action was manifested in an increase in the size of cells, their rounding, and detachment from a substrate. These morphological characteristics served as their marked difference from the cells subjected to a toxic action of high concentrations of the examined preparations. The latter acquired spindle-like shape, lost contacts with neighboring cells of the monolayer, and their boundaries became more distinct.
Intensity of the virus-specific changes in the cells were semi-quantified using a 4-score system: 0—CPA (cytopathogenic action) is not detected; 1—up to 25% virus-infected monolayer; 2—from 25% to 50%; 3—from 50% to 75%; and 4—from 75% to 100%. The antiviral activity of a compound was evaluated according to their ability to reduce the manifestation of cytopathogenic action in the plate wells compared to the control values. Differences with the control values by 1 score and more were considered to be significant.

[10] = Water solubility
[11] = test system: Bacillus subtilis BKM B-501; assay: Antibacterial activity, serial dilutions in liquid MH medium; assay type: cell-based; details: for MIC: MH medium, 20 h, 37° C., 100% growth inhibition
Method: (§4) The antibacterial activity of the compounds was determined against strains of gram-positive bacteria such as Staphylococcus aureus 209P, Enterococcus faecalis BKM B-871, Micrococcus luteus BKM Ac-2230, Bacillus subtilis BKM B-501, and gram-negative bacteria such as Pseudomonas aeruginosa PAO1 and Escherichia coli KM MGU C-600. BKM strains were acquired from the All-Russia Collection of Microorganisms at the Institute for Biochemistry and Physiology of Microorganisms, Russian Academy of Sciences. Strain Staphylococcus aureus 209P was acquired from the Collection of Microorganisms at the Department of microbiology of the Faculty of Biology of Lomonosov Moscow State University, and Pseudomonas aeruginosa PAO1 was acquired from the Collection of Microorganisms at the Institute of Bioorganic Chemistry of the Russian Academy of Sciences.
(§5) The main parameters characterizing the antibacterial activity are the minimal inhibitory concentration (MIC) and minimal bactericidal concentration (MBC). […] MBC is the least concentration that causes the death of all cells.
(§6) MIC was quantified by inhibiting culture growth in a liquid medium with serial dilutions of compounds using a modified procedure [Amsterdam, D., 1966. “Susceptibility testing of antimicrobials in liquid media,” pp. 52-111. In Loman, V., ed. Antibiotics in laboratory medicine, 4th ed. Williams and Wilkins, Baltimore].
(§7) Bacteria were cultured and tested on an MH liquid medium (Mueller-Hinton medium: a dry extract of beef broth, 4 g/L; starch, 1.5 g/L; casein hydrolyzate, 17.5 g/L; Sigma-Fluka Catalog No. 70192) at 37° C., 100% humidity, and under stirring. Cultures (within 4 to 7 passages after thawing) in the exponential growth phase were used for tests.
(§8) All tested compounds absorb light at 595 nm, a wavelength used for evaluating bacterial culture growth. Therefore, a correction for absorption was applied in estimating the optical density of bacterial suspensions for each compound with account for its concentration in the well. Bacterial growth inhibition (GI) as percentage after 20 hours of incubating cells with compounds was derived from the optical density (A) measured in every well at a wavelength of 595 nm using the equation: GIi=[(Act−Ac0)−(Ait−Ai0)]×100/(Act−Ac0), (1) wherein the subscripts have the following meanings: i denotes the well number, c denotes a control well with bacteria whereto the tested compound is not inserted, 0 refers to the measurement taken immediately once the tested compound was inserted to the well, and t refers to the measurement taken 20 hours after the compound was inserted.
(§9) The protocol for the determination of experimental antibacterial activity of the tested compounds was as follows. A cryovial with the test strain culture in a medium with 7% DMSO stored in liquid nitrogen, was rapidly defrosted, and 1.5 mL of the fresh MH medium was inoculated with 100 μL of the cell suspension. Cells were grown for one day at 37° C. and stirred on an orbital shaker at 150 rpm. The morphologic features of the strain and the absence of contamination with foreign bacteria were verified by: (a) inoculation on an agarized (15 g/L agar) MH medium and observation of the shape and color of the grown colonies and (b) examination of characteristic morphologic features under a microscope (Mikmed-2, LOMO, Russia) equipped with a 40× objective lens. Further, the bacteria were cultured in 1 mL of the liquid MH medium at 37° C. under stirring. The cells were reseeded every day. Cell cultures were used in tests starting with 3rd reseeding and ending with 6th one.
(§10) For testing, 5 μL of a bacterial suspension in the stationary growth phase was transferred to 1 mL of a sterile MH medium and incubated until the exponential growth phase was attained (3 to 5 h, 37° C., stirring at 150 rpm). To estimate the microorganism concentration, the optical density (A) of the resulting bacterial culture was measured at a wavelength of 595 nm. […]

[12] = test system: Micrococcus luteus BKM Ac-2230; assay: as above; assay type: cell-based; details: for MIC: MH medium, 20 h, 37° C., 100% growth inhibition; for MBC: no colonies on agarized MH medium
Method: as §4, §5, §6, §7, §8, §9, §10

[13] = test system: Enterococcus faecalis BKM B-871; assay: as above; assay type: cell-based; details: MH medium, 20 h, 37° C., 100% growth inhibition
Method: as §4, §5, §6, §7, §8, §9, §10

[14] = HSV-2, virus dose 1, concentration 0.1 μM
[15] = HSV-2, virus dose 1, concentration 1 μM
[16] = HSV-2, virus dose 1, concentration 10 μM
[17] = HSV-2, virus dose 10, concentration 0.1 μM
[18] = HSV-2, virus dose 10, concentration 1 μM
[19] = HSV-2, virus dose 10, concentration 10 μM
[20] = HSV-2, virus dose 100, concentration 0.1 μM
[21] = HSV-2, virus dose 100, concentration 1 μM
[22] = HSV-2, virus dose 100, concentration 10 μM

Substance	MIC [1]	MIC [2]	MIC [3]	MIC [4]	MIC [5]	MIC [6]	MIC [7]	MIC [8]	manifestation of the virus CPA [9, 14]	manifestation of the virus CPA [9, 15]	manifestation of the virus CPA [9, 16]	manifestation of the virus CPA [9, 17]	manifestation of the virus CPA [9, 18]	manifestation of the virus CPA [9, 19]	manifestation of the virus CPA [9, 20]	manifestation of the virus CPA [9, 21]	manifestation of the virus CPA [9, 22]	water solubility [10]	MIC [11]	MIC [12]	also measured
6,7-bis-[(Diamide N^α-L-Glycyl)-L-glutamyl]-Protohemin (IX) [XIII]	12.5 µM	>50.0 µM	12.5 µM	12.5 µM	50 µM	83 µM	12.5 µM	>50.0 µM	1 (up to 25% virus-infected monolayer)	1 (up to 25% virus-infected monolayer)	0.5 scores	2 (from 25% to 50%)	2 (from 25% to 50%)	1^1 (up to 25% virus-infected monolayer)	3 (from 50% to 75%)	3 (from 50% to 75%)	3 (from 50% to 75%)	water-soluble			
6,7-bis-[(Dimethyl Ester N^α-L-Glycyl)-L-glutamyl]-Protohemin (IX) [XIV]	3.12 µM	>50.0 µM	2.6 µM	0.39 µM	2.6 µM	3.12 µM	1.04 µM	>50.0 µM										water-insoluble	6.3 µM	1.6 µM	MBC ([11]; no colonies on agarized MH medium): 25 µM; MBC [12]: 6.3 µM
6,7-bis-[(Dimethyl Ester N^α-L-Seryl)-L-glutamyl]-Protohemin (IX)									1 (up to 25% virus-infected monolayer)	1 (up to 25% virus-infected monolayer)	0^1	2 (from 25% to 50%)	2 (from 25% to 50%)	1.5 scores	3 (from 50% to 75%)	3 (from 50% to 75%)	3 (from 50% to 75%)	water-soluble	50 µM	12.5 µM	MIC [13]: 50 µM; MBC [12]: 25 µM
